The values that follow are results of earlier work, collected in patent publication US20240115713A1, “POLYETHYLENE GLYCOL CONJUGATE DRUG, AND PREPARATION METHOD THEREFOR AND USE THEREOF” (CHONGQING UPGRA BIOTECHNOLOGY CO., LTD., priority 2020, published 2024).

Structures are written as SMILES.

This data set has as its target FA receptors. To be noted: read-out: Kd, binding affinity to the FA receptors.

Broadly, the Kd is a measure of binding affinity in units of concentration. For `Nc1nc2ncc(CNc3ccc(C(=O)N[C@@H](CCC(=O)O)C(=O)O)cc3)nc2c(=O)[nH]1` [FA, folic acid], the Kd was roughly 0.1 nM.
